Experimental data from ChEMBL document CHEMBL3875166, “Synthesis and biological evaluation of new 6-hydroxypyridazinone benzisoxazoles: Potential multi-receptor-targeting atypical antipsychotics” (Eur J Med Chem, 2016).

How the values were obtained:
D(2) dopamine receptor = D(2) dopamine receptor (Rattus norvegicus, UniProt P61169); assay: Displacement of [3H]spiperone from dopamine D2 receptor in Sprague-Dawley rat striatum incubated for 30 mins by liquid scintillation counting analysis
[1] = molecular target: T1, 5-hydroxytryptamine receptor 1A (Rattus norvegicus, UniProt P19327); assay: Displacement of [3H]8-OH-DPAT from 5-HT1A receptor in Sprague-Dawley rat cerebral cortex incubated for 30 mins by liquid scintillation counting analysis
T1 sequence (P19327 whole entry): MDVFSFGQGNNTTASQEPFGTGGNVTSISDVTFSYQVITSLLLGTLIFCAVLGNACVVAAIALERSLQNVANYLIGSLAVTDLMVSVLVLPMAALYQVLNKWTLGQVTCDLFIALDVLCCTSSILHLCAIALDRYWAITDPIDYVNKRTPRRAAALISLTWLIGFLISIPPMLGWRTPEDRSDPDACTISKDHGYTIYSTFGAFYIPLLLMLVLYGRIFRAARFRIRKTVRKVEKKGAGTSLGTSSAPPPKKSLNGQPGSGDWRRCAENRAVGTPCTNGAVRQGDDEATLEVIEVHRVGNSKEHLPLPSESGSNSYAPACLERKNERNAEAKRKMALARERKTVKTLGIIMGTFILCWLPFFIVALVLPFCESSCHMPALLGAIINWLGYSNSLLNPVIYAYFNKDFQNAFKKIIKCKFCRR

[2] = molecular target: 5-hydroxytryptamine receptor 2A (Rattus norvegicus, UniProt P14842); assay: Displacement of [3H] ketanserin from 5-HT2A receptor in Sprague-Dawley rat cerebral cortex incubated for 30 mins by liquid scintillation counting analysis
Chain of 5-hydroxytryptamine receptor 2A (P14842 whole entry): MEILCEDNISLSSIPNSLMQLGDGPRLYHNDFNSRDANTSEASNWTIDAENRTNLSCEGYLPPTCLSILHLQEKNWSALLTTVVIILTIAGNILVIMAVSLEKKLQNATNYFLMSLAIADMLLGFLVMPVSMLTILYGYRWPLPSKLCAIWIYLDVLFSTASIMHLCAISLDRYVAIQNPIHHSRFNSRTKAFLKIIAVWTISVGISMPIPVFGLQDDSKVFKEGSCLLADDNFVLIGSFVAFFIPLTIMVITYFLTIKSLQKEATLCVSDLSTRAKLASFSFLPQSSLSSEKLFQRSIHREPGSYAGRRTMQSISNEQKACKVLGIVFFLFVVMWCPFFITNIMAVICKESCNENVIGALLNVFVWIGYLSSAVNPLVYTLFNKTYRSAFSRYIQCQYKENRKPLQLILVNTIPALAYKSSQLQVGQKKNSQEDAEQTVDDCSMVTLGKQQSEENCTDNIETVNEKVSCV

Chain of D(2) dopamine receptor (P61169 whole entry): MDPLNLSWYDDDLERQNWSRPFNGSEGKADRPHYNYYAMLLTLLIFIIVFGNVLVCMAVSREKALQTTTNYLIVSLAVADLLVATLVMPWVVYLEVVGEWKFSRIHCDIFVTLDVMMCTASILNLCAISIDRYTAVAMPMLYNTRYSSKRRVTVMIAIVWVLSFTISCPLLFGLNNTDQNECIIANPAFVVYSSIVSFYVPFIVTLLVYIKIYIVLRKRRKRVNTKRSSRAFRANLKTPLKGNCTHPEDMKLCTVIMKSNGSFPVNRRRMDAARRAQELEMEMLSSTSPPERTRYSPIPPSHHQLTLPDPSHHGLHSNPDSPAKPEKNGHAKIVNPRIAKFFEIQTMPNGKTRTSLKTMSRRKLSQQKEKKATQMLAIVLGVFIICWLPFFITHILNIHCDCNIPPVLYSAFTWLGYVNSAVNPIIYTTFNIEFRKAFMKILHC

SMILES	Ki (D(2) dopamine receptor) [nM]	Ki [1] [nM]	Ki [2] [nM]
Cc1c(OCCCN2CCC(c3noc4cc(F)ccc34)CC2)nn(-c2ccc(Cl)c(Cl)c2)c(=O)c1C	38.3	121	91.3
O=c1ccc(OCCCN2CCC(c3noc4cc(F)ccc34)CC2)nn1-c1ccc(Cl)cc1	28.1	89	12.3
O=c1ccc(OCCCCCN2CCC(c3noc4cc(F)ccc34)CC2)nn1-c1ccc(Cl)c(Cl)c1	40.3	326	25.3
O=c1ccc(OCCCN2CCC(c3noc4cc(F)ccc34)CC2)nn1-c1ccc(F)c(Cl)c1	45.3	89	12.3
Cc1ccc(-n2nc(OCCCN3CCC(c4noc5cc(F)ccc45)CC3)ccc2=O)cc1	33.1	34.2	55.4
O=c1c2ccccc2c(OCCCN2CCC(c3noc4cc(F)ccc34)CC2)nn1-c1ccc(Cl)c(Cl)c1	43.7	333	83.9
O=c1ccc(OCCCN2CCC(c3noc4cc(F)ccc34)CC2)nn1-c1ccc(F)c(F)c1	38.5	43.5	3.2
O=c1c2c(c(OCCCN3CCC(c4noc5cc(F)ccc45)CC3)nn1-c1ccc(Cl)c(Cl)c1)CCCC2	41.8	224	89.6
O=c1ccc(OCCCN2CCC(c3noc4cc(F)ccc34)CC2)nn1-c1cc(Cl)cc(Cl)c1	38.1	129	9.3
O=c1ccc(OCCCN2CCC(c3noc4cc(F)ccc34)CC2)nn1-c1ccccc1	45.5	61.3	131
O=c1ccc(OCCCCN2CCC(c3noc4cc(F)ccc34)CC2)nn1-c1ccc(Cl)c(Cl)c1	26.7	117	34.7
O=c1ccc(OCCCN2CCC(c3noc4cc(F)ccc34)CC2)nn1-c1ccc2ccccc2c1	16.2	15.9	21.3
O=c1ccc(OCCCN2CCC(c3noc4cc(F)ccc34)CC2)nn1-c1cccc(Cl)c1	41.1	183	6
O=c1ccc(OCCCN2CCC(c3noc4cc(F)ccc34)CC2)nn1-c1ccccc1Cl	38.5	78	10.3
O=c1ccc(OCCCN2CCC(c3noc4cc(F)ccc34)CC2)nn1-c1ccc(F)cc1F	174	88.4	0.5
NC(=O)c1ccc2occ(N3CCN(CCCOc4ccc(=O)n(-c5ccc(Cl)c(Cl)c5)n4)CC3)c2c1	379	64.8	605
O=c1ccc(OCCCN2CCC(c3noc4cc(F)ccc34)CC2)nn1-c1ccc(F)cc1	10.8	52.8	25.9
O=c1ccc(OCCCN2CCC(c3noc4cc(F)ccc34)CC2)nn1-c1ccc(Cl)c(Cl)c1	7.8	25	21.7
O=c1ccc(OCCCN2CCC(c3noc4cc(F)ccc34)CC2)nn1-c1cc(F)cc(F)c1	35.4	38.1	2.3
O=C(c1ccc(F)cc1)C1CCN(CCCOc2ccc(=O)n(-c3ccc(Cl)c(Cl)c3)n2)CC1	179		13.8
O=c1ccc(OCCCN2CCC(c3c[nH]c4ccccc34)CC2)nn1-c1ccc(Cl)c(Cl)c1	499	1250	74.5
O=c1ccc(OCCCN2CCC(c3nc4ccccc4s3)CC2)nn1-c1ccc(Cl)c(Cl)c1	> 10000	> 10000	107
O=c1ccc(OCCCN2CCC(c3noc4cc(F)ccc34)CC2)nn1-c1ccc(Cl)cc1Cl	0.4	191	0.4

Now from value to molecule:

Ki (D(2) dopamine receptor) [nM]	Ki [1] [nM]	Ki [2] [nM]	SMILES
> 10000	157	143	O=c1ccc(OCCCN2CCN(c3ccccn3)CC2)nn1-c1ccc(Cl)c(Cl)c1
> 10000	5530	81.2	Cc1cccc(N2CCN(CCCOc3ccc(=O)n(-c4ccc(Cl)c(Cl)c4)n3)CC2)c1C
953	55.4	64.5	O=c1ccc(OCCCN2CCN(c3ccc(F)cc3)CC2)nn1-c1ccc(Cl)c(Cl)c1
524	56.2	242	COc1ccccc1N1CCN(CCCOc2ccc(=O)n(-c3ccc(Cl)c(Cl)c3)n2)CC1
914	167	1140	O=c1ccc(OCCCN2CCN(c3ncccn3)CC2)nn1-c1ccc(Cl)c(Cl)c1
1200	56.5	69.5	O=c1ccc(OCCCN2CCN(c3ccccc3F)CC2)nn1-c1ccc(Cl)c(Cl)c1
648	984	81.2	O=c1ccc(OCCCN2CCN(c3csc4ccccc34)CC2)nn1-c1ccc(Cl)c(Cl)c1
> 10000	213	595	O=c1ccc(OCCCN2CCN(Cc3ccccc3)CC2)nn1-c1ccc(Cl)c(Cl)c1
845	57.3	543	COc1ccc(N2CCN(CCCOc3ccc(=O)n(-c4ccc(Cl)c(Cl)c4)n3)CC2)cc1
808	1110	120	O=c1ccc(OCCCN2CCN(c3ccccc3Cl)CC2)nn1-c1ccc(Cl)c(Cl)c1
595	898	75.1	O=c1ccc(OCCCN2CCN(c3nsc4ccccc34)CC2)nn1-c1ccc(Cl)c(Cl)c1
1320	48.1	359	O=c1ccc(OCCCN2CCN(c3ccccc3)CC2)nn1-c1ccc(Cl)c(Cl)c1
916	103	99.2	O=c1ccc(OCCCN2CCN(c3cccc(C(F)(F)F)c3)CC2)nn1-c1ccc(Cl)c(Cl)c1
777	624	627	O=c1ccc(OCCCN2CCN(c3cccc(Cl)c3Cl)CC2)nn1-c1ccc(Cl)c(Cl)c1
